From patent publication US20260083851A1 (AVILAR THERAPEUTICS, INC., priority 2022, published 2026) come the findings set out here.

Each structure is given as a SMILES string. pKd: −log10 of the molar value. Where only a bound is given, the exact number is not on record here.

The first assay concerns the target T1, ASGP receptor (biotinylated ASGPR) (Homo sapiens, UniProt P07306).
T1 construct: biotin (biotinylated)
T1 sequence (P07306 1-291): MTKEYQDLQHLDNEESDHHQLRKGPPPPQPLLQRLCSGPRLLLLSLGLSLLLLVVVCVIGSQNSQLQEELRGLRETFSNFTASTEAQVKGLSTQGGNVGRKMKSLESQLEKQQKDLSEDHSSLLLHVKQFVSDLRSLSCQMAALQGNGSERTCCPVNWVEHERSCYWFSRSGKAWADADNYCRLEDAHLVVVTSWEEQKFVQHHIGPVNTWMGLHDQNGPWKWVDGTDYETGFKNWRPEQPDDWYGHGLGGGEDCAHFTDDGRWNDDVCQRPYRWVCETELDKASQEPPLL
Type of assay: binding. Conditions: SPR, Biacore 8K, 25° C.; Table 1D, numeric bound; read-out: ASGPR KD. On the technique in general: In SPR one partner is held on a chip, and binding of the other changes the refractive index at the surface.
In the case of `O=C(OCc1ccccc1)N1CC(Nc2cn[nH]c2)[C@@H](O)[C@@H](O)C1` (some centres unmarked) [A371], the negative logarithm of the Kd (pKd) (in general, the negative decadic logarithm of the Kd, by convention in mol/L) is < 4.52.

Take `O=C(OCc1ccccc1)N1C[C@H](Nc2ccc(C(F)(F)F)cn2)[C@@H](O)[C@@H](O)C1` [A374]: the pKd was < 4.52.

Regarding `O[C@@H]1[C@@H](Nc2ncnn3cccc23)CNC[C@@H]1O` [A400], the pKd is < 4.52.

Staying with this assay, now noted: SPR, Biacore 8K, 25° C.; Table 1D; read-out: ASGPR KD.
As for `O[C@@H]1[C@@H](Nc2nccc(C(F)(F)F)n2)CNC[C@@H]1O` [A370], the pKd is 4.00 to 5.00.

Turning to `CN1C[C@H](Nc2nccc(C(F)(F)F)n2)[C@@H](O)[C@@H](O)C1` [A372], the pKd is > 5.00.

For the compound `O[C@@H]1[C@@H](Nc2cncc(C(F)(F)F)n2)CN(Cc2ccccc2)C[C@@H]1O` [A373], the pKd is > 5.00.

In the case of `O=C(OCc1ccccc1)N1C[C@H](Nc2ccnc(C(F)(F)F)n2)[C@@H](O)[C@@H](O)C1` [A375], the pKd was > 5.00.

With `O=C(c1ccc(-c2ccccc2)cc1)N1C[C@H](Nc2cncc(C(F)(F)F)n2)[C@@H](O)[C@@H](O)C1` [A376], the negative logarithm of the Kd (pKd) was > 5.00.

As for `O[C@@H]1[C@@H](Nc2cncc(C(F)(F)F)n2)CN(c2ccc(C(F)(F)F)cn2)C[C@@H]1O` [A377], the pKd is > 5.00.

`O=C(c1ccc(C(F)(F)F)cn1)N1C[C@H](Nc2cncc(C(F)(F)F)n2)[C@@H](O)[C@@H](O)C1` [A378]: the pKd is > 5.00.

For the compound `O=C(c1ccc(C(F)(F)F)cc1F)N1C[C@H](Nc2cncc(C(F)(F)F)n2)[C@@H](O)[C@@H](O)C1` [A379], the pKd was > 5.00.

Consider `O=C(OCc1ccccc1)N1C[C@H](Nc2nc(Cl)nn3cccc23)[C@@H](O)[C@@H](O)C1` [A380], for which the pKd was > 5.00.

With `O=C(O)COCCOCC(=O)C1C[C@H](Nc2cncc(C(F)(F)F)n2)[C@@H](O)[C@@H](O)C1` (some centres unmarked) [A381], the pKd was > 5.00.

As for `O[C@@H]1[C@@H](Nc2nc(Cl)nn3cccc23)CNC[C@@H]1O` [A382], the pKd is 4.00 to 5.00.

As to `O=C(O)c1ccc(-c2ccc(C(=O)N3C[C@H](Nc4cncc(C(F)(F)F)n4)[C@@H](O)[C@@H](O)C3)cc2)cc1` [A383], the pKd was > 5.00.

`O=C(Oc1ccc(-c2ccccc2)cc1)N1C[C@H](Nc2cncc(C(F)(F)F)n2)[C@@H](O)[C@@H](O)C1` [A384]: the pKd is > 5.00.

Turning to `O=C(OCc1ccccc1)N1C[C@H](Oc2cncc(C(F)(F)F)n2)[C@@H](O)[C@@H](O)C1` [A385], the pKd was > 5.00.

As for `O=C(OCc1ccccc1)N1C[C@H](Oc2cccc(C(F)(F)F)n2)[C@@H](O)[C@@H](O)C1` [A386], the pKd was > 5.00.

As to `O=C(O)c1ccc(-c2ccc(CN3C[C@H](Nc4cncc(C(F)(F)F)n4)[C@@H](O)[C@@H](O)C3)cc2)cc1` [A387], the pKd was > 5.00.

Consider `O[C@@H]1[C@@H](Oc2cccc(C(F)(F)F)n2)CNC[C@@H]1O` [A388], for which the pKd was > 5.00.

For `O[C@@H]1[C@@H](Oc2cncc(C(F)(F)F)n2)CNC[C@@H]1O` [A389], the negative-log Kd (pKd) was > 5.00.

Consider `O=C(OCc1ccccc1)N1C[C@H](Nc2cccc(C(F)(F)F)n2)[C@@H](O)[C@@H](O)C1` [A390], for which the negative-log Kd (pKd) is > 5.00.

For the compound `COC(=O)c1ccc(-c2ccc(C(=O)N3C[C@H](Nc4cncc(C(F)(F)F)n4)[C@@H](O)[C@@H](O)C3)cc2)cc1` [A391], the pKd is > 5.00.

For the compound `O=C(O)c1ccc(C(=O)N2C[C@H](Nc3cncc(C(F)(F)F)n3)[C@@H](O)[C@@H](O)C2)nc1` [A392], the negative logarithm of the Kd (pKd) was > 5.00.

On to `O[C@@H]1[C@@H](Nc2cncc(C(F)(F)F)n2)CN(c2ccccc2)C[C@@H]1O` [A393], for which the pKd was > 5.00.

With `OCC1CCN(c2ccc(N3C[C@H](Nc4cncc(C(F)(F)F)n4)[C@@H](O)[C@@H](O)C3)nn2)CC1` [A394], the pKd was > 5.00.

Consider `O[C@@H]1[C@@H](Nc2cncc(C(F)(F)F)n2)CN(c2cccnn2)C[C@@H]1O` [A395], for which the pKd was > 5.00.

On to `O[C@@H]1[C@@H](Nc2cccc(C(F)(F)F)n2)CN(C2CCNCC2)C[C@@H]1O` [A396], for which the pKd was > 5.00.

As to `CC(C)(C)OC(=O)N1CCC(N2C[C@H](Nc3cccc(C(F)(F)F)n3)[C@@H](O)[C@@H](O)C2)CC1` [A397], the pKd is > 5.00.

In the case of `O=C(O)C1CCN(c2ccc(N3C[C@H](Nc4cncc(C(F)(F)F)n4)[C@@H](O)[C@@H](O)C3)nc2)CC1` [A401], the negative-log Kd (pKd) is > 5.00.

As for `C#CCOc1nc(N[C@H]2CO[C@H](CO)[C@H](O)[C@@H]2O)cc(C(F)(F)F)n1` [A402], the pKd was 4.00 to 5.00.

Take `CN1C[C@H](Oc2cccc(C(F)(F)F)n2)[C@@H](O)[C@@H](O)C1` [A403]: the negative-log Kd (pKd) was 4.00 to 5.00.

As to `O=C(CCCCC(=O)N1C[C@H](Nc2cncc(C(F)(F)F)n2)[C@@H](O)[C@@H](O)C1)OCc1ccccc1` [A404], the pKd is > 5.00.

Consider `CC(=O)N[C@H]1CN(C(=O)CCCCC(=O)OCc2ccccc2)C[C@H](O)[C@@H]1O` [A407], for which the pKd is 4.00 to 5.00.

Take `O=C(O)CCCCC(=O)N1C[C@H](Nc2cncc(C(F)(F)F)n2)[C@@H](O)[C@@H](O)C1` [A408]: the pKd is > 5.00.

As to `O=C(OCc1ccccc1)N1CCC(c2cnc(OC[C@H]3OC[C@H](Nc4cncc(C(F)(F)F)n4)[C@@H](O)[C@H]3O)cn2)CC1` [A409], the pKd is > 5.00.

As for `O=C(OCc1ccccc1)N1CC(c2ccc(OC[C@H]3OC[C@H](Nc4cncc(C(F)(F)F)n4)[C@@H](O)[C@H]3O)nn2)C1` [A410], the pKd was > 5.00.

For the compound `O=C(OCc1ccccc1)N1CCC(N2C[C@H](Nc3cccc(C(F)(F)F)n3)[C@@H](O)[C@@H](O)C2)C(F)(F)C1` (some centres unmarked) [A412], the pKd was > 5.00.

Consider `O[C@@H]1[C@H](O)[C@@H](Nc2cncc(C(F)(F)F)n2)CO[C@@H]1COc1cnc(C2CCNCC2)cn1` [A415], for which the pKd was > 5.00.

As for `O[C@@H]1[C@H](O)[C@@H](Nc2cncc(C(F)(F)F)n2)CO[C@@H]1COc1ccc(C2CCNCC2)nn1` [A416], the pKd is > 5.00.

`O[C@@H]1[C@H](O)[C@@H](Oc2cncc(C(F)(F)F)n2)CO[C@@H]1COc1ncccn1` [A417]: the negative-log Kd (pKd) is > 5.00.

For `Nc1ccc(OC[C@H]2OC[C@H](Nc3cncc(C(F)(F)F)n3)[C@@H](O)[C@H]2O)nn1` [A418], the pKd was > 5.00.

As to `O[C@@H]1[C@H](O)[C@@H](Nc2cncc(C(F)(F)F)n2)CO[C@@H]1COc1ccc(C2CNC2)nn1` [A420], the pKd was > 5.00.

With `O[C@@H]1[C@H](O)[C@@H](Oc2cncc(C(F)(F)F)n2)CO[C@@H]1COc1cnccn1` [A421], the pKd is > 5.00.

For `O=C(c1ccccc1)N1C[C@H](Nc2cncc(C(F)(F)F)n2)[C@@H](O)[C@@H](O)C1` [A422], the pKd was > 5.00.

As to `O=C(c1ccccn1)N1C[C@H](Nc2cncc(C(F)(F)F)n2)[C@@H](O)[C@@H](O)C1` [A423], the pKd is > 5.00.

As to `C[C@H]1O[C@H](C(=O)Nc2cn[nH]c2)[C@H](Nc2cccc(C(F)(F)F)n2)[C@@H](O)[C@H]1O` [A424], the pKd is > 5.00.

Consider `O[C@@H]1[C@@H](Oc2cccc(C(F)(F)F)n2)CN(c2cnccn2)C[C@@H]1O` [A425], for which the pKd is > 5.00.

As for `O[C@@H]1[C@@H](Oc2cccc(C(F)(F)F)n2)CN(c2ccc(C(F)(F)F)cn2)C[C@@H]1O` [A427], the pKd was > 5.00.

Still in this assay, the particulars now being: SPR, Biacore 8K, 25° C.; Table 1E, numeric bound; read-out: ASGPR KD.
Consider `C[C@H]1O[C@H](CO)[C@H](Oc2cncc(C(F)(F)F)n2)[C@@H](O)[C@H]1O` [A436], for which the pKd is < 4.52.

Regarding `C[C@H]1O[C@H](C(=O)NCCOCCOCC(=O)O)[C@H](Oc2cccc(C(F)(F)F)n2)[C@@H](O)[C@H]1O` [A440], the pKd is < 4.52.

The assay is the same for the next values; noted with them: SPR, Biacore 8K, 25° C.; Table 1E; read-out: ASGPR KD.
Consider `C[C@H]1O[C@H](C(N)=O)[C@H](Oc2cccc(C(F)(F)F)n2)[C@@H](O)[C@H]1O` [A431], for which the pKd is > 5.00.

On to `C[C@H]1O[C@H](C#N)[C@H](Oc2cccc(C(F)(F)F)n2)[C@@H](O)[C@H]1O` [A432], for which the negative logarithm of the Kd (pKd) was > 5.00.

For the compound `C[C@H]1O[C@H](C(C)(C)O)[C@H](Oc2cccc(C(F)(F)F)n2)[C@@H](O)[C@H]1O` [A433], the pKd is > 5.00.

Consider `C[C@H]1O[C@H](COc2cnccn2)[C@H](Oc2cncc(C(F)(F)F)n2)[C@@H](O)[C@H]1O` [A434], for which the pKd was > 5.00.

For the compound `C[C@H]1O[C@H](C2=CC3C(C2=O)[C@@H]2CC[C@H]3C2)[C@H](Oc2cccc(C(F)(F)F)n2)[C@@H](O)[C@H]1O` (some centres unmarked) [A435A], the pKd was > 5.00.

Turning to `C[C@H]1O[C@H](C2=CC3C(C2=O)[C@H]2CC[C@@H]3C2)[C@H](Oc2cccc(C(F)(F)F)n2)[C@@H](O)[C@H]1O` (some centres unmarked) [A435B], the pKd is > 5.00.

Turning to `C[C@H]1O[C@H](C2=CC3C4CCC(C4)C3C2=O)[C@H](Oc2cccc(C(F)(F)F)n2)[C@@H](O)[C@H]1O` (some centres unmarked) [A435], the pKd is > 5.00.

On to `C[C@H]1O[C@H](CO)[C@H](Oc2nccc(C(F)(F)F)n2)[C@@H](O)[C@H]1O` [A437], for which the pKd is 4.00 to 5.00.

For `C[C@H]1O[C@H](CO)[C@H](Oc2cccc(C(F)(F)F)n2)[C@@H](O)[C@H]1O` [A438], the pKd was > 5.00.

For `C[C@H]1O[C@H](CCc2ccncc2)[C@H](Oc2cccc(C(F)(F)F)n2)[C@@H](O)[C@H]1O` [A439], the pKd was > 5.00.

As to `C[C@H]1O[C@H](COc2cccnn2)[C@H](Oc2cccc(C(F)(F)F)n2)[C@@H](O)[C@H]1O` [A441], the pKd was > 5.00.

As to `C#Cc1ccc(OC[C@H]2O[C@H](C)[C@H](O)[C@H](O)[C@H]2Oc2cccc(C(F)(F)F)n2)nn1` [A442], the pKd is > 5.00.

With `C[C@H]1O[C@H](COc2cnc(C(=O)O)cn2)[C@H](Oc2cccc(C(F)(F)F)n2)[C@@H](O)[C@H]1O` [A443], the negative-log Kd (pKd) was > 5.00.

Turning to `C[C@H]1O[C@H](COc2ccc(C(=O)O)nn2)[C@H](Oc2cccc(C(F)(F)F)n2)[C@@H](O)[C@H]1O` [A444], the pKd was > 5.00.
